In PMC6572064, “Discovery of 2-(1-(3-(4-Chloroxyphenyl)-3-oxo- propyl)pyrrolidine-3-yl)-1H-benzo[d]imidazole-4-carboxamide: A Potent Poly(ADP-ribose) Polymerase (PARP) Inhibitor for Treatment of Cancer” (Molecules, 2019):
Read-outs that look alike come from different tables or passages of the source.

Tests used:
PARP-1 = molecular target: T1, PARP-1 (Homo sapiens, UniProt P09874); assay: PARP-1 inhibition assay (PARP-1 Chemiluminescent Assay Kit, BPS Bioscience); assay type: biochemical; conditions: 10 nM compound
T1 construct: purchased BPS Bioscience 80569
Procedure: (§1) The PARP-1 and PARP-2 inhibition assays were performed in outsourcing, by a CRO company, Shanghai Medicilon Inc. (Shanghai, China). […] Briefly, PARP-1 or PARP-2 biotinylated substrate was incubated with compounds or solvent control at varying concentrations and an assay buffer containing the PARP-1 or PARP-2 enzyme.

[1] = test system: MDA-MB-436 (a BRCA-1-mutated breast cancer cell line); assay: Cell proliferation assay, three-day, CellTiter-Glo, MDA-MB-436; assay type: cell-based; conditions: Homo sapiens; for inhibition at 0.00508 µM: MDA-MB-436, MDA-MB-436, Conc. 0.00508 uM; for inhibition at 0.0152 µM: MDA-MB-436, MDA-MB-436, Conc. 0.0152 uM; for inhibition at 0.0457 µM: MDA-MB-436, MDA-MB-436, Conc. 0.0457 uM; for inhibition at 0.41 µM: MDA-MB-436, MDA-MB-436, Conc. 0.41 uM; for inhibition at 1.23 µM: MDA-MB-436, MDA-MB-436, Conc. 1.23 uM; for inhibition at 3.7 µM: MDA-MB-436, MDA-MB-436, Conc. 3.70 uM; for inhibition at 11.11 µM: MDA-MB-436, MDA-MB-436, Conc. 11.11 uM; for inhibition at 33.33 µM: MDA-MB-436, MDA-MB-436, Conc. 33.33 uM; for inhibition at 100 µM: MDA-MB-436, MDA-MB-436, Conc. 100.00 uM
Procedure: (§2) A three-day assay was conducted. A cell suspension was prepared. Cell density was counted by an automated cell counter and then diluted to the required density, according to seeding density. 50 μL cells were seeded into 384-well plate in growth medium according to the plate map. The cells were incubated at 37 °C, 5% CO2 overnight.
(§3) 200× compound solution in DMSO was prepared and diluted with growth medium to 26× final concentration by addition of 26 μL 200× compounds to 174 μL growth medium. Then 2 μL of diluted compound solution was added to cells and the cell was incubated at 37 °C, 5% CO2 for 72 h.
(§4) The assay plate was equilibrated to room temperature prior to measurement. 15 μL of CellTiter-Glo Reagent was added into each well and the contents were mixed for 2 min on an orbital shaker to induce cell lysis. The cells were incubated at room temperature for 60 min to stabilize luminescent signal. Luminescence was recorded on the Envision system.

[2] = test system: CAPAN-1 (a BRCA-2-mutated pancreatic cancer cell line); assay: Cell proliferation assay, three-day, CellTiter-Glo, CAPAN-1; assay type: cell-based; conditions: Homo sapiens; for inhibition at 0.00508 µM: CAPAN-1, Conc. 0.00508 uM; for inhibition at 0.0152 µM: CAPAN-1, Conc. 0.0152 uM; for inhibition at 0.0457 µM: CAPAN-1, Conc. 0.0457 uM; for inhibition at […]: CAPAN-1, Conc. 0.14 uM; for inhibition at 0.41 µM: CAPAN-1, Conc. 0.41 uM; for inhibition at 1.23 µM: CAPAN-1, Conc. 1.23 uM; for inhibition at 3.7 µM: CAPAN-1, Conc. 3.70 uM; for inhibition at 11.11 µM: CAPAN-1, Conc. 11.11 uM; for inhibition at 33.33 µM: CAPAN-1, Conc. 33.33 uM; for inhibition at 100 µM: CAPAN-1, Conc. 100.00 uM
Procedure: as §2, §3, §4

PARP-2 = molecular target: T2, PARP-2 (Homo sapiens, UniProt Q9UGN5); assay: PARP-2 inhibition assay (PARP-2 Chemiluminescent Assay Kit, BPS Bioscience); assay type: biochemical; conditions: 10 nM compound
T2 construct: purchased BPS Bioscience 80552
Procedure: as §1

T1 sequence (P09874 whole entry): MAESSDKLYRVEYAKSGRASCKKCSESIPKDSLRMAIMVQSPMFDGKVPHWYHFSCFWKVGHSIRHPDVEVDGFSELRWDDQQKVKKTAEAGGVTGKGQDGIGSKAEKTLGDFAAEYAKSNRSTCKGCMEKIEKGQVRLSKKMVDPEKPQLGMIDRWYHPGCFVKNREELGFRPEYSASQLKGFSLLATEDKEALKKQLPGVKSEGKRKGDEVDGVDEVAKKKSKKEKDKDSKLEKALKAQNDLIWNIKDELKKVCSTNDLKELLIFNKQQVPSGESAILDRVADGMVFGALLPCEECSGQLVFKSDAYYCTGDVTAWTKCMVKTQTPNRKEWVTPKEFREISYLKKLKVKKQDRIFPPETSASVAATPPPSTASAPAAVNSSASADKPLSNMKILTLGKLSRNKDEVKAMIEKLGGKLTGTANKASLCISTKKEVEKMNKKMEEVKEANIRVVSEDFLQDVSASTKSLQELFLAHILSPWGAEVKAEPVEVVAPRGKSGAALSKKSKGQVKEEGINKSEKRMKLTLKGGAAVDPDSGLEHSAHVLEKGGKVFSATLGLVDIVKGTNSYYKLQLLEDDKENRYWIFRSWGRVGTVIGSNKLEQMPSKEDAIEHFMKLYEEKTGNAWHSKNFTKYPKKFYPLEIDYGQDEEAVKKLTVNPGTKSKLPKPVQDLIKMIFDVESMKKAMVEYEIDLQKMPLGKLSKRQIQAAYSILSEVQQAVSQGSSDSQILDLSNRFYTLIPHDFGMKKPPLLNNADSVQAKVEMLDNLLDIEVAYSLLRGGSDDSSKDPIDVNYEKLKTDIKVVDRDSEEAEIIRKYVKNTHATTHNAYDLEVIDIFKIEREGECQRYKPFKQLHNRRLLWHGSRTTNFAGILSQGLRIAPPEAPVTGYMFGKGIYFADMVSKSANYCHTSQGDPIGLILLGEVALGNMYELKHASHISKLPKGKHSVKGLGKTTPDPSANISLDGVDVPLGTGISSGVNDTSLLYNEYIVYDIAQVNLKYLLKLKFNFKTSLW
T2 sequence (Q9UGN5 whole entry): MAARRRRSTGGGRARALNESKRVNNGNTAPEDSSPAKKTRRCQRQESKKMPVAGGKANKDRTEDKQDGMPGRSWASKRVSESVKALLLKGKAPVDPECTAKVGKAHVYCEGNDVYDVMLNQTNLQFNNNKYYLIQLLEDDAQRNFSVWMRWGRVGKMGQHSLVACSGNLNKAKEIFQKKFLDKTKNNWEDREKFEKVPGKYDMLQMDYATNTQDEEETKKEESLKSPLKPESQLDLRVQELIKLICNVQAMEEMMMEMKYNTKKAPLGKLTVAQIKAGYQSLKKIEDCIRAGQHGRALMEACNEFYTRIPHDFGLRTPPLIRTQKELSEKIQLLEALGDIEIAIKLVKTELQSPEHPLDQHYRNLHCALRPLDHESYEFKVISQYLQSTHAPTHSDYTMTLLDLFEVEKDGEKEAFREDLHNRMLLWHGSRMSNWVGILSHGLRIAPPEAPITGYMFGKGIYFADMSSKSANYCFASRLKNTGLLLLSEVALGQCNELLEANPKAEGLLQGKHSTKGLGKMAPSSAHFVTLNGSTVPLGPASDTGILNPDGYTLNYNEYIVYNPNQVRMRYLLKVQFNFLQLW

Question: Which results are given for `NCCCN1CCC(c2nc3c(C(N)=O)cccc3[nH]2)C1` (centres unmarked) [Compound 5cl, 2-(1-(3-Aminopropyl)pyrrolidin-3-yl)-1H-benzo[d]imidazole-4-carboxamide]?
Answer: inhibition at 0.01 µM (PARP-1; supplement sheet, read-out: 10 nM inhibition% PAPR-1): 26.8%; inhibition at 0.01 µM (PARP-1; read-out: PARP-1 Inhibition % (10 nM)): 26.8%; inhibition at 0.00508 µM ([1]; replicate 1, read-out: Inh % 1): 4.5%; inhibition at 0.00508 µM ([1]; replicate 2, read-out: Inh % 2): -3.7%; inhibition at 0.0152 µM ([1]; replicate 1, read-out: Inh % 1): 0.4%; inhibition at 0.0152 µM ([1]; replicate 2, read-out: Inh % 2): -4.9%; inhibition at 0.0457 µM ([1]; replicate 1, read-out: Inh % 1): -13.5%; inhibition at 0.0457 µM ([1]; replicate 2, read-out: Inh % 2): -10.1%; inhibition at 0.41 µM ([1]; replicate 1, read-out: Inh % 1): -7.3%; inhibition at 0.41 µM ([1]; replicate 2, read-out: Inh % 2): -7.6%; inhibition at 1.23 µM ([1]; replicate 1, read-out: Inh % 1): -9%; inhibition at 1.23 µM ([1]; replicate 2, read-out: Inh % 2): -8.7%; inhibition at 3.7 µM ([1]; replicate 1, read-out: Inh % 1): -7.4%; inhibition at 3.7 µM ([1]; replicate 2, read-out: Inh % 2): -9.8%; inhibition at 11.11 µM ([1]; replicate 1, read-out: Inh % 1): -5.4%; inhibition at 11.11 µM ([1]; replicate 2, read-out: Inh % 2): -5.2%; inhibition at 33.33 µM ([1]; replicate 1, read-out: Inh % 1): 1.9%; inhibition at 33.33 µM ([1]; replicate 2, read-out: Inh % 2): -7%; inhibition at 100 µM ([1]; replicate 1, read-out: Inh % 1): 7.4%; inhibition at 100 µM ([1]; replicate 2, read-out: Inh % 2): 2.1%; IC50 ([1]; MDA-MB-436, 72 h, CellTiter-Glo, read-out: MDA-MB-436 IC50): > 100 µM; IC50 ([2]; CAPAN-1, 72 h, CellTiter-Glo, read-out: CAPAN-1 IC50): > 100 µM; inhibition at 0.00508 µM ([2]; replicate 1, read-out: Inh % 1): 0.0228%; inhibition at 0.00508 µM ([2]; replicate 2, read-out: Inh % 2): -3.6%; inhibition at 0.0152 µM ([2]; replicate 1, read-out: Inh % 1): -3.3%; inhibition at 0.0152 µM ([2]; replicate 2, read-out: Inh % 2): -4.8%; inhibition at 0.0457 µM ([2]; replicate 1, read-out: Inh % 1): 0.238%; inhibition at 0.0457 µM ([2]; replicate 2, read-out: Inh % 2): -10.3%; inhibition at […] ([2]; replicate 1, read-out: Inh % 1): 4.7%; inhibition at […] ([2]; replicate 2, read-out: Inh % 2): -9.8%; inhibition at 0.41 µM ([2]; replicate 1, read-out: Inh % 1): 1.3%; inhibition at 0.41 µM ([2]; replicate 2, read-out: Inh % 2): 5.2%; inhibition at 1.23 µM ([2]; replicate 1, read-out: Inh % 1): -5.5%; inhibition at 1.23 µM ([2]; replicate 2, read-out: Inh % 2): 3.8%; inhibition at 3.7 µM ([2]; replicate 1, read-out: Inh % 1): 4.6%; inhibition at 3.7 µM ([2]; replicate 2, read-out: Inh % 2): -3%; inhibition at 11.11 µM ([2]; replicate 1, read-out: Inh % 1): -2.8%; inhibition at 11.11 µM ([2]; replicate 2, read-out: Inh % 2): -3.6%; inhibition at 33.33 µM ([2]; replicate 1, read-out: Inh % 1): -7.9%; inhibition at 33.33 µM ([2]; replicate 2, read-out: Inh % 2): -7.8%; inhibition at 100 µM ([2]; replicate 1, read-out: Inh % 1): -10.8%; inhibition at 100 µM ([2]; replicate 2, read-out: Inh % 2): -6.6%; inhibition at 0.01 µM (PARP-2; supplement sheet, read-out: 10 nM inhibition% PAPR-2): 46.4%; inhibition at 0.01 µM (PARP-2; read-out: PARP-2 Inhibition % (10 nM)): 46.4%
